Here are results for 11 compounds from ChEMBL document CHEMBL1138237, “Synthesis and anti-inflammatory/antioxidant activities of some new ring substituted 3-phenyl-1-(1,4-di-N-oxide quinoxalin-2-yl)-2-propen-1-one derivatives and of their 4,5-dihydro-(1H)-pyrazole analogues” (Bioorg Med Chem Lett, 2007).

For orientation: IC50 means the concentration needed to halve the response being measured. A higher IC50 goes with lower potency. In general, Inhibition refers to the drop in the measured response relative to a control, in per cent. By inhibition is commonly meant the percentage by which the read-out fell short of the control. Higher therefore signals a response far below the control.

The target of assay [1] is T1, Seed linoleate 13S-lipoxygenase-1 (Glycine max, UniProt P08170).
T1 sequence (P08170 whole entry): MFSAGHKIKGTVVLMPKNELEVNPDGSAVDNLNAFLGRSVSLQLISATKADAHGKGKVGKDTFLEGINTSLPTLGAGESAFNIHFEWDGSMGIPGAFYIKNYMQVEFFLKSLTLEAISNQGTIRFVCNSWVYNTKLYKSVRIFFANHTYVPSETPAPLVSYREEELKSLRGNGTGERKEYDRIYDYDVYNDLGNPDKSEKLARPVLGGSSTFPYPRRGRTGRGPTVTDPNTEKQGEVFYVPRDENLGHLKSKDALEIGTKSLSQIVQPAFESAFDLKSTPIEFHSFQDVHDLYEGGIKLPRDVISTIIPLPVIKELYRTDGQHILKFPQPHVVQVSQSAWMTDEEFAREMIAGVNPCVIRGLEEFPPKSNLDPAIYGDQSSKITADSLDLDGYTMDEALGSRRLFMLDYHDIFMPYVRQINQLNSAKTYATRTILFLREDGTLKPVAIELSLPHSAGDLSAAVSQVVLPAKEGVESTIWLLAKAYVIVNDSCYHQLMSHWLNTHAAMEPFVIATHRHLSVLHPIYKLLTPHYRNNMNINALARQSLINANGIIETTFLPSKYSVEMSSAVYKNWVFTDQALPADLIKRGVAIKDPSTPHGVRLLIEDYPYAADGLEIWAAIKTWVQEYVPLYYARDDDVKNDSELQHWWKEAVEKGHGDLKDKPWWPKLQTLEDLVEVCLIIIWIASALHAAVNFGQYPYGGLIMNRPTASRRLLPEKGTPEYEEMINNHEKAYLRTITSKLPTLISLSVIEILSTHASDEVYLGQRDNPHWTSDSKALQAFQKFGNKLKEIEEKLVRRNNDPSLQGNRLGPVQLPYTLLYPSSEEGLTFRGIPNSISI
Briefly: Inhibition of soybean lipoxygenase.

Assay [2] can be described thus: Antioxidant activity assessed as hydroxyl radical scavenging activity at 0.1 mM. Format: functional.
Assay [3] deals with Rattus norvegicus. In words: Antiinflammatory activity against carrageenan-induced paw edema rat model at 0.01 mmol/ml/kg. It is filed as functional. On the technique in general: Carrageenan injected into the paw causes an acute inflammation.
For assay [4], the system named is Radical scavenging activity. In words: Antioxidant activity assessed as DPPH radical scavenging activity at 0.1 mM after 60 mins. It is filed as functional.
Assay [5] relates to Radical scavenging activity. Briefly: Antioxidant activity assessed as DPPH radical scavenging activity at 0.1 mM after 20 mins. Format: functional. (In general: Loss of DPPH colour is used to gauge radical scavenging.)
The nature of assay [6]: Antioxidant activity assessed as superoxide radical scavenging activity at 0.1 mM by nitroblue tetrazolium method. It is filed as functional.
For assay [7], the target named is T2, Seed linoleate 13S-lipoxygenase-1 (Glycine max) (UniProt P08170).
T2 sequence (whole entry): T1 sequence (P08170 whole entry)
In words: Inhibition of soybean lipoxygenase at 100 uM.

The test system of assay [8] is Radical scavenging activity. In words: Antioxidant activity assessed as DPPH radical scavenging activity at 0.05 mM after 60 mins. It is filed as functional.
Assay [9] relates to Radical scavenging activity. Briefly: Antioxidant activity assessed as DPPH radical scavenging activity at 0.05 mM after 20 mins. It is filed as functional.

For the compound `COc1cc(/C=C/C(=O)c2c(C)[n+]([O-])c3ccccc3[n+]2[O-])ccc1O`, the IC50 in assay [1] was less than 1 µM. Besides, the Activity stood at 100% in [2], 56% in assay [4], 39.4% in assay [5] and 12.5% in assay [6]. Further, in assay [3], the Inhibition was determined as 56.1%.

Turning to `COc1cc(/C=C/C(=O)c2c(C)[n+]([O-])c3ccccc3[n+]2[O-])cc(OC)c1OC`, in [1], half-maximal inhibition (IC50) was put at 42 µM. Also, the Activity was determined as 99% in assay [2] and 100% in assay [6]. Further, the Inhibition in [3] was 55.4%.

With `O=C(O)/C=C/c1ccc(O)c(O)c1`, in [6], the Activity was 45%.

Compound `COc1cc(C2CC(c3c(C)[n+]([O-])c4ccccc4[n+]3[O-])=NN2)cc(OC)c1OC` (stereo not given) returned an inhibition in assay [7] of 67.3%. Also, the Activity was found to be 46% in [8]; 93.4% in assay [2]; 38% in assay [4]; 42% in [9]; 31% in [5]. The compound also returned an Inhibition in assay [3] of 24.3%.

Take `COc1ccc2c(c1)c(CC(=O)O)c(C)n2C(=O)c1ccc(Cl)cc1` [INDOMETHACIN]: the Inhibition in assay [3] stood at 47%.

`CC(Cc1ccc(O)c(O)c1)C(C)Cc1ccc(O)c(O)c1` (stereo not given): the Activity in [8] was found to be 72%; in assay [4] it was 82.6%; in assay [9], 68%; in assay [5] it was 81%.

In the case of `Cc1c(C(=O)/C=C/c2ccc3c(c2)OCO3)[n+]([O-])c2ccccc2[n+]1[O-]`, the IC50 in assay [1] worked out at 31 µM. Moreover, the Activity turned out to be 96% in assay [2], 3% in assay [4] and 1% in assay [5]. The same compound registered an Inhibition in assay [3] of 4.5%.

Consider `COc1ccc2c(c1)[n+]([O-])c(C(=O)/C=C/c1ccc(O)c(OC)c1)c(C)[n+]2[O-]`, for which, in assay [7], the inhibition was determined as 55.7%. Besides, the Activity came to 59% in assay [8]; 97.3% in assay [2]; 70.4% in assay [4]; 45% in assay [9]; 51% in [5]. The Inhibition in [3] is given as 21.3%.

Consider `COc1cc(C2CC(c3c(C)[n+]([O-])c4ccc(F)cc4[n+]3[O-])=NN2)cc(OC)c1OC` (stereo not given), for which the Activity in assay [8] is 67%; in assay [2], 99.3%; in assay [4] it was 68%; in assay [9], 58%; in [5], 51.6%. Besides, half-maximal inhibition in assay [1] (IC50) was put at 70 µM. Also, the Inhibition in [3] is given as 23.4%.

In the case of `Cc1c(C)c2c(c(C)c1O)CCC(C)(C(=O)O)O2` (stereo not given), the Activity in assay [2] was 73.4%.

In the case of `COc1cc(/C=C/C(=O)c2c(C)[n+]([O-])c3ccc(F)cc3[n+]2[O-])ccc1O`, the Activity in [8] amounted to 38.4%; in assay [2], 99.7%; in assay [4] it was 52%; in assay [9] it was 36.4%; in assay [5], 45.3%. This compound had an IC50 in [1] of 85 µM. Besides, the Inhibition in assay [3] worked out at 36.3%.
